Experimental data reported in US11590116B2 (THERAVANCE BIOPHARMA R&D IP, LLC, priority 2019, dated 2023).

Legend:
[1] = target: T1, recombinant human ALK5 (TGF-βR1) protein (Homo sapiens, UniProt P36897); test: Biochemical ALK5 (TGF-βR1) assay to measure pKi (LANCE Ultra ULight kinase assay); conditions: apparent pKi from pIC50 by Cheng-Prusoff, read-out: ALK5 pKi (converted)
T1 construct: purchased Life Technologies PR9075A
T1 sequence (P36897 34-503): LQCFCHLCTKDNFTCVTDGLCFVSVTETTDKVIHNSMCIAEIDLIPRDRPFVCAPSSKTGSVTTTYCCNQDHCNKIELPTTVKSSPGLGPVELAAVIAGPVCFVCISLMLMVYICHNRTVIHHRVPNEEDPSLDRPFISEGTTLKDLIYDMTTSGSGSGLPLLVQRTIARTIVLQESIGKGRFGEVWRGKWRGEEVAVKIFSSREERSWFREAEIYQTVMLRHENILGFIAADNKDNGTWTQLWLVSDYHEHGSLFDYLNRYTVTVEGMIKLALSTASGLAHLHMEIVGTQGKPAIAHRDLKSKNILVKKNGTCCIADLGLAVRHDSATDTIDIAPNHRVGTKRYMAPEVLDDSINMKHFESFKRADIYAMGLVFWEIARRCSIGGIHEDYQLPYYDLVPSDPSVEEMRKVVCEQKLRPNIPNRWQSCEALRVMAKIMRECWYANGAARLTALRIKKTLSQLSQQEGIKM
How it was run: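 After a 60 min room-temperature preincubation of ALK5 with compound, phosphorylation proceeds 60 min at 37 °C on ATP addition (125 μM as 5× stock). Detection: Eu-labelled phospho-Thr1342 Topo IIα antibody in EDTA buffer, pH 7.0; emission 665 nm.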

[2] = system: TGF-β-stimulated SMAD3 phosphorylation in BEAS-2B cells; test: Cellular ALK5 potency assay, inhibition of TGF-β stimulated pSMAD3 formation in BEAS-2B cells; format: cell-based; conditions: Homo sapiens; inhibition of TGF-β stimulated pSMAD3 formation, BEAS-2B cells; read-out: BEAS2B pIC50 (converted)
How it was run: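 Potency is reported as pIC50, derived from concentration-dependent reduction of pSMAD3 AlphaLISA signal against TGF-β-stimulated cells without compound. BEAS-2B cells received compound for 1 h before a 30-min stimulation with 10 ng/mL TGF-β.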

Row | Structure (SMILES) | Ki [1] [nM] | IC50 [2] [nM]
1 | Cc1cccc(-c2n[nH]cc2-c2ccc3ncc(-c4cccc(F)c4)cc3n2)n1 [Compound 58, 7-(3-fluorophenyl)-2-[3-(6-methyl-2-pyridyl)-1H-pyrazol-4-yl]-1,5-naphthyridine] | 0.0398 to 0.316 | 25.1 to 158
2 | COC(=O)CC1CN(c2cnc3ccc(-c4nc[nH]c4-c4cccc(C)n4)cc3c2)CCN1 (stereo not drawn) [Compound 60, methyl 2-(4-(6-(5-(6-methylpyridin-2-yl)-1H-imidazol-4-yl)quinolin-3-yl)piperazin-2-yl)acetate] | 0.0398 to 0.316 | 25.1 to 158
3 | COc1ncccc1-c1cnc2ccc(-c3c[nH]nc3-c3cccc(C)n3)nc2c1 [Compound 61, 7-(2-methoxy-3-pyridyl)-2-[3-(6-methyl-2-pyridyl)-1H-pyrazol-4-yl]-1,5-naphthyridine] | 0.0398 to 0.316 | 25.1 to 158
4 | Cc1cccc(-c2[nH]ncc2-c2ccc3ncc(C(=O)OC4CCC5(CNC5)C4)cc3n2)n1 (stereo not drawn) [Compound 62, 2-azaspiro[3.4]octan-6-yl 6-[5-(6-methyl-2-pyridyl)-1H-pyrazol-4-yl]-1,5-naphthyridine-3-carboxylate] | 0.0398 to 0.316 | 200 to 1260
5 | CNCCn1cc(-c2cnc3ccc(-c4c(-c5cccc(C)n5)nn5c4CNCC5)nc3c2)cn1 [Compound 64, N-methyl-2-[4-[6-[2-(6-methyl-2-pyridyl)-4,5,6,7-tetrahydropyrazolo[1,5-a]pyrazin-3-yl]-1,5-naphthyridin-3-yl]pyrazol-1-yl]ethanamine] | 0.0398 to 0.316 | 200 to 1260
6 | Cc1cccc(-c2n[nH]cc2-c2ccc3ncc(N4CCCN(Cc5ccccc5)CC4)cc3n2)n1 [Compound 65, 7-(4-benzyl-1,4-diazepan-1-yl)-2-[3-(6-methyl-2-pyridyl)-1H-pyrazol-4-yl]-1,5-naphthyridine] | 0.0398 to 0.316 | 200 to 1260
7 | Cc1cccc(-c2n[nH]cc2-c2ccc3ncc(-c4nc5n(n4)CCNC5)cc3n2)n1 [Compound 67, 2-[3-(6-methyl-2-pyridyl)-1H-pyrazol-4-yl]-7-(5,6,7,8-tetrahydro-[1,2,4]triazolo[1,5-a]pyrazin-2-yl)-1,5-naphthyridine] | 0.0398 to 0.316 | 25.1 to 158
8 | Cc1cccc(-c2n[nH]cc2-c2ccc3ncc(-c4ncco4)cc3n2)n1 [Compound 72, 2-[6-[3-(6-methyl-2-pyridyl)-1H-pyrazol-4-yl]-1,5-naphthyridin-3-yl]oxazole] | 0.0398 to 0.316 | 25.1 to 158
9 | Cc1cccc(-c2n[nH]cc2-c2ccc3ncc(N4CCN5CCCC5C4)cc3n2)n1 (stereo not drawn) [Compound 74, 7-(3,4,6,7,8,8a-hexahydro-1H-pyrrolo[1,2-a]pyrazin-2-yl)-2-[3-(6-methyl-2-pyridyl)-1H-pyrazol-4-yl]-1,5-naphthyridine] | < 0.0316 | 25.1 to 158
10 | Cc1cccc(-c2n[nH]cc2-c2ccc3ncc(-c4cn5c(n4)CNCC5)cc3n2)n1 [Compound 75, 2-(3-(6-Methylpyridin-2-yl)-1H-pyrazol-4-yl)-7-(5,6,7,8-tetrahydroimidazo[1,2-a]pyrazin-2-yl)-1,5-naphthyridine] | < 0.0316 | 25.1 to 158
11 | Cc1cccc(-c2[nH]cnc2-c2ccc3ncc(-c4cnc5c(c4)CNCC5)cc3c2)n1 [Compound 77, 3-[6-[5-(6-methyl-2-pyridyl)-1H-imidazol-4-yl]-3-quinolyl]-5,6,7,8-tetrahydro-1,6-naphthyridine] | 0.0398 to 0.316 | 25.1 to 158
12 | Cc1cccc(-c2n[nH]cc2-c2ccc3ncc(N4CCOCC4)cc3n2)n1 [Compound 78, 4-[6-[3-(6-methyl-2-pyridyl)-1H-pyrazol-4-yl]-1,5-naphthyridin-3-yl]morpholine] | < 0.0316 | < 20
13 | Cc1cccc(-c2n[nH]cc2-c2ccc3ncc(-c4cccs4)cc3n2)n1 [Compound 80, 2-[3-(6-methyl-2-pyridyl)-1H-pyrazol-4-yl]-7-(2-thienyl)-1,5-naphthyridine] | 0.0398 to 0.316 | 25.1 to 158
14 | Cc1nc(-c2nc3ccccn3c2-c2ccc3ncc(N4CCCNCC4)cc3n2)ccc1F [Compound 84, 7-(1,4-diazepan-1-yl)-2-[2-(5-fluoro-6-methyl-2-pyridyl)imidazo[1,2-a]pyridin-3-yl]-1,5-naphthyridine] | 0.0398 to 0.316 | 25.1 to 158
15 | Cc1cccc(-c2[nH]ncc2-c2ccc3ncc(C(=O)N(C)C)cc3n2)n1 [Compound 85, N,N-dimethyl-6-[5-(6-methyl-2-pyridyl)-1H-pyrazol-4-yl]-1,5-naphthyridine-3-carboxamide] | 3.98 to 31.6 | 200 to 1260
16 | Cc1cccc(-c2nnn(C)c2-c2ccc3ncc(N4CCNCC4)cc3c2)n1 [Compound 86, 6-[3-methyl-5-(6-methyl-2-pyridyl)triazol-4-yl]-3-piperazin-1-yl-quinoline] | 0.398 to 3.16 | 25.1 to 158
17 | COc1[nH]nc(-c2cccc(C)n2)c1-c1ccc2ncc(NCCN3CCOCC3)cc2n1 [Compound 87, 6-[5-methoxy-3-(6-methyl-2-pyridyl)-1H-pyrazol-4-yl]-N-(2-morpholinoethyl)-1,5-naphthyridin-3-amine] | 0.398 to 3.16 | 200 to 1260
18 | Cc1cccc(-c2n[nH]cc2-c2ccc3ncc(C4=CCCC4)cc3n2)n1 [Compound 88, 7-(cyclopenten-1-yl)-2-[3-(6-methyl-2-pyridyl)-1H-pyrazol-4-yl]-1,5-naphthyridine] | < 0.0316 | < 20

More lines, main results first:

Row | Ki [1] [nM] | Structure (SMILES) | IC50 [2] [nM]
19 | 0.0398 to 0.316 | Cc1cccc(-c2n[nH]cc2-c2ccc3ncc(N(C)C)cc3n2)n1 [Compound 59, N,N-dimethyl-6-[3-(6-methyl-2-pyridyl)-1H-pyrazol-4-yl]-1,5-naphthyridin-3-amine] | < 20
20 | 3.98 to 31.6 | Cc1cccc(-c2n[nH]cc2-c2ccc3ncc(CCC(=O)O)cc3n2)n1 [Compound 63, 3-[6-[3-(6-methyl-2-pyridyl)-1H-pyrazol-4-yl]-1,5-naphthyridin-3-yl]propanoic acid] | 1580 to 10000
21 | 0.0398 to 0.316 | Cc1cccc(-c2n[nH]cc2-c2ccc3ncc(N4CCNC(CO)C4)cc3n2)n1 (stereo not drawn) [Compound 66, [4-[6-[3-(6-methyl-2-pyridyl)-1H-pyrazol-4-yl]-1,5-naphthyridin-3-yl]piperazin-2-yl]methanol] | 25.1 to 158
22 | 0.0398 to 0.316 | Cc1cccc(-c2[nH]cnc2-c2ccc3ncc(N4CC(CN)C4)cc3c2)n1 [Compound 68, [1-[6-[5-(6-methyl-2-pyridyl)-1H-imidazol-4-yl]-3-quinolyl]azetidin-3-yl]methanamine] | < 20
23 | 0.0398 to 0.316 | Cc1cccc(-c2n[nH]cc2-c2ccc3ncc(-c4cnc(O)nc4)cc3n2)n1 [Compound 69, 5-[6-[3-(6-methyl-2-pyridyl)-1H-pyrazol-4-yl]-1,5-naphthyridin-3-yl]pyrimidin-2-ol] | 1580 to 10000
24 | < 0.0316 | Cc1cccc(-c2n[nH]cc2-c2ccc3ncc(-c4cn(C)nn4)cc3n2)n1 [Compound 71, 2-[3-(6-methyl-2-pyridyl)-1H-pyrazol-4-yl]-7-(1-methyltriazol-4-yl)-1,5-naphthyridine] | 25.1 to 158
25 | < 0.0316 | Cc1cccc(-c2n[nH]cc2-c2ccc3ncc(N4CCNCC4)cc3n2)n1 [Compound 73, 2-[3-(6-methyl-2-pyridyl)-1H-pyrazol-4-yl]-7-piperazin-1-yl-1,5-naphthyridine] | < 20
26 | 0.0398 to 0.316 | CCOC(=O)Cn1cc(-c2cnc3ccc(-c4c[nH]nc4-c4cccc(C)n4)nc3c2)nn1 [Compound 76, ethyl 2-[4-[6-[3-(6-methyl-2-pyridyl)-1H-pyrazol-4-yl]-1,5-naphthyridin-3-yl]triazol-1-yl]acetate] | 25.1 to 158
27 | 0.0398 to 0.316 | CNCCn1cc(-c2cnc3ccc(-c4c(-c5ccc(F)c(C)n5)nc5ccccn45)cc3c2)cn1 [Compound 79, 2-[4-[6-[2-(5-fluoro-6-methyl-2-pyridyl)imidazo[1,2-a]pyridin-3-yl]-3-quinolyl]pyrazol-1-yl]-N-methyl-ethanamine] | 25.1 to 158
28 | < 0.0316 | Cc1cccc(-c2[nH]cnc2-c2ccc3ncc(C4=CC[C@H](N)CC4)cc3c2)n1 [Compound 81, (1R)-4-[6-[5-(6-methyl-2-pyridyl)-1H-imidazol-4-yl]-3-quinolyl]cyclohex-3-en-1-amine] | < 20
29 | 0.0398 to 0.316 | Cc1cccc(-c2n[nH]cc2-c2ccc3ncc(N4CCC(N5CCN(C)CC5)CC4)cc3c2)n1 [Compound 82, 3-(4-(4-Methylpiperazin-1-yl)piperidin-1-yl)-6-(3-(6-methylpyridin-2-yl)-1H-pyrazol-4-yl)quinoline] | 25.1 to 158
30 | < 0.0316 | Cc1cccc(-c2n[nH]cc2-c2ccc3ncc(-c4cc5n(n4)CCNC5)cc3n2)n1 [Compound 83, 2-[3-(6-methyl-2-pyridyl)-1H-pyrazol-4-yl]-7-(4,5,6,7-tetrahydropyrazolo[1,5-a]pyrazin-2-yl)-1,5-naphthyridine] | < 20
